Values quoted from earlier work, collected in PMC12298827, “Subchronic Toxicities of Four Per- and Polyfluoroalkyl Substances (PFASs) by Oral Exposure in Sprague–Dawley Rats” (Toxics, 2025).

Test system: male and female rats
Conditions: cited from earlier work

SMILES | Effect on absolute and relative liver weights (28- and 90-day oral gavage ref 16) | Effect on liver weights or bodyweights (doses of up to 600 mg/kg-day, 90-day oral gavage, male or female rats ref 21)
N.O=C(O)C(F)(F)C(F)(F)C(F)(F)F [ammonium perfluorobutyrate] | significant increases in the absolute and relative liver weights only in male rats | –
O=S(=O)(O)C(F)(F)C(F)(F)C(F)(F)C(F)(F)F [perfluorobutane sulfonate] | – | did not affect the liver weights or bodyweights
